# According to patent US11571418B2, “Platinum compounds that inhibit constitutive STAT3 signaling and induce cell cycle arrest and apoptosis of malignant cells” (H. LEE MOFFITT CANCER CENTER AND RESEARCH INSTITUTE, INC., priority 2011, dated 2023):
# Tested on: Stat3-dependent firefly luciferase reporter pLucTKS3
# Experiment: Stat3-dependent luciferase reporter assay
# Assay type: cell-based, mouse
# Conditions: stable NIH3T3/v-Src/pLucTKS3, 48 h
# Protocol: FIGS. 3A-3D. Inhibition of Stat3-mediated gene expression by PLATINUM-401. (FIG. 3A) and (FIG. 3B) v-Src-transformed mouse fibroblasts that stably express Stat3-dependent (NIH3T3/v-Src/pLucTKS3) and Stat3-independent (NIH3T3/v-Src/pRLSRE) luciferase reporters or β-galactosidase (β-gal), as well as normal mouse fibroblast (NIH3T3) transiently transfected with pLucTKS3, pGL2-VEGF-Luc, NFkB-Luc or pLucSRE together with or without v-Src were treated with or without PLATINUM-401 for 48 h. Cytosolic extracts were then prepared from cells for luciferase and […] activities measurements. […]
# Cytosolic extract preparation and luciferase assays—Cytosolic extract preparation from fibroblasts and luciferase assays were previously described (Turkson et al., 1998; Turkson et al., 1999). […] Cells were resuspended in 0.4 ml of low-salt HEPES buffer (10 mM HEPES [pH 7.8], 10 mM KCl, 0.1 mM EGTA, 0.1 mM EDTA, 1 mM phenylmethylsulfonyl fluoride (PMSF), and 1 mM dithiothreitol (DTT)) for 15 min, lysed by the addition of 20 μl of 10% Nonidet P-40 (NP-40), and centrifuged (10,000×g, 30 s, 4° C.) to obtain the cytosolic supernatant, which was used for luciferase assays (Promega) measured with a luminometer. […]
# To further investigate the activities of PLATINUM-401, the inventors treated malignant cells and measured effects on Stat3 signaling. […]
structure (smiles),measurement,value
CC(O)CN1CCN(CC(C)O)CC1 (stereo not shown) [PLATINUM-401],induction of Stat3-dependent reporter,strongly suppresses
